According to paper PMC8148468, “Shikimic acid protects skin cells from UV-induced senescence through activation of the NAD+-dependent deacetylase SIRT1” (Aging (Albany NY), 2021):

Experiments:
Type in all cases: cell-based, human
LC3-II = LC3-II protein levels (Western blot); conditions: UVB-irradiated cells, SA -/+ EX-527 1 μM (reversion at SA 10mM)
Experimental: Figure 5 (A) Western-blot of BiP proteins levels in UVB or non UVB irradiated cells treated with SA at the indicated concentrations in presence or absence of EX-527 1 μM. (B) Quantification of n=3 experiments as (A). The levels of BiP are normalized by the loading control (histone H3) and represented related to the conditions in UVB irradiated cells in absence of SA and EX-527. Student T-test, *p<0.05. (C) Percentage of SA-β-Gal in assays performed as in Figure 3C. (D) Levels of spliced and unspliced XBP1 mRNA monitored by qPCR analysis in cells treated in the indicated conditions in presence or absence of SA and/or EX-527. The levels were normalized by internal controls and represented in each case related to the conditions in UVB irradiated cells in absence of SA and EX-527. Student T-test, *p<0.05, **p<0.01, ***p<0.001. (E) LC3-II protein levels in experiments like in (A). The levels of LC3-II are normalized by the loading control (tubulin) and represented related to the conditions in UVB irradiated cells in absence of SA and EX-527. Student T-test, *p<0.05. (F) Proposed Model for the effect of SA on senescence through SIRT1. Other possible unexplored connections between SA and senescence are indicated by blue broken lines.
Protein levels were analyzed as previously described. Cells were directly lysed in 1x Laemmli Buffer (Bio-Rad, USA), incubated at 95° C and centrifuged. […]

UVB-irradiated HDF cells = assay: Apoptosis detection, Annexin V-FITC/PI flow cytometry; conditions: UVB-irradiated cells exposed to SA 10, 25, 50 mM
Experimental: Figure 4 (A) SRB and Trypan blue cell viability assays performed in cells treated with or without Shikimic acid (5, 10, 25 and 50 mM) for 24h. (B) Apoptosis detection using the Annexin V-FITC/PI double staining followed by flow cytometry in non-irradiated and non-treated cells, irradiated and non-treated cells and irradiated cells treated with Shikimic acid (10, 25 and 50 mM). (C) Representation and statistical analysis of the percentage of apoptotic cells in each of the conditions analyzed. (D) Cell cycle analysis using PI staining followed by flow cytometry. (E) Relative p16^INK4a mRNA levels monitored by qPCR in the indicated conditions. Student T-test, *p<0.05. (F) Immunofluorescence of γH2AX in non-irradiated and non-treated cells, irradiated and non-treated cells and irradiated cells treated with Shikimic acid (10, 25 and 50 mM). […]
Fluorescence-activated cell sorting (FACS) analyses of the cell cycle and apoptosis were carried out using, respectively, a Propidium Iodide Flow Cytometry Kit (Abcam, UK), and an Annexin V-FITC Apoptosis Staining/Detection Kit (Abcam, UK), following the manufacturer’s instructions. […]

[1] = test system: H4K16ac (the target of SIRT1 and SIRT2); assay: Sirtuin activity assay in HDF: H4K16ac levels (Western blot); conditions: HDF treated 24h;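 further: screen looked for decreased acetylation as a sign of sirtuin activation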

## O=C(O)C1=C[C@@H](O)[C@@H](O)[C@H](O)C1 [Shikimic acid]
LC3-II
  LC3-II protein levels: SA-dependent decrease in the levels of LC3-II
UVB-irradiated HDF cells
  early apoptosis (annexin V, text): very mild and mostly insignificant levels of early apoptosis
[1]
  effect on H4K16ac levels: induced a similar effect on both targets
